# Assay results taken from PubChem BioAssay (NCI).
# “And” between values parts separate entries of the source, which are not always exact repeats. Equal values may be shown once.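 Results reflect a 48-hour exposure of cells in 96-well plates to compound at five concentrations. GI50: concentration for 50% inhibition of growth. The concentration for full growth arrest is given as TGI.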
# Key:
# Assay in all cases: NCI anticancer screen, dose series, 48 h
# SR leukemia = tested on: SR leukemia
# COLO 205 colon = tested on: COLO 205 colon
# SF-539 CNS = tested on: SF-539 CNS
# NCI-H226 lung = tested on: NCI-H226 lung
# EKVX NSCLC = tested on: EKVX NSCLC
# OVCAR-8 ovarian = tested on: OVCAR-8 ovarian
# SNB-75 CNS = tested on: SNB-75 CNS
# SK-MEL-28 melanoma = tested on: SK-MEL-28 melanoma
# OVCAR-5 ovarian = tested on: OVCAR-5 ovarian
# RXF 393 renal = tested on: RXF 393 renal
SMILES,GI50 (SR leukemia),TGI (SR leukemia),GI50 (COLO 205 colon),TGI (COLO 205 colon),GI50 (SF-539 CNS),TGI (SF-539 CNS),GI50 (NCI-H226 lung),TGI (NCI-H226 lung),GI50 (EKVX NSCLC),TGI (EKVX NSCLC),GI50 (OVCAR-8 ovarian),TGI (OVCAR-8 ovarian),GI50 (SNB-75 CNS),TGI (SNB-75 CNS),GI50 (SK-MEL-28 melanoma),TGI (SK-MEL-28 melanoma),GI50 (OVCAR-5 ovarian),TGI (OVCAR-5 ovarian),GI50 (RXF 393 renal),TGI (RXF 393 renal)
Cc1cc(Oc2ccc3nc(COc4ccc(CC5SC(=O)NC5=O)cc4)n(C)c3c2)cc(C)c1N (centres undefined),31.7 µM,> 100 µM,32.1 µM,> 100 µM,43.3 µM,> 83.4 µM,46.8 µM,> 95.7 µM,39 µM,> 100 µM,31.2 µM,> 86.5 µM,27.6 µM,> 72.7 µM,49.7 µM,> 100 µM,> 63.7 µM,> 100 µM,50.8 µM,> 100 µM
O=C1OC(c2ccccc2)(c2cc(Br)c(O)c(Br)c2)c2ccccc21 (centres undefined),26 µM,> 100 µM,18.2 µM,39.4 µM,26.6 µM,80.6 µM,26.2 µM,84.4 µM,31.7 µM,> 100 µM,29.3 µM,> 100 µM,20.3 µM,72 µM,21.1 µM,49.2 µM,31.8 µM,> 100 µM,18.6 µM,36.4 µM
CCc1ccc2c(c1)N(CCO)C1=C(C(=O)OC1)C2c1cccc(Cl)c1 (centres undefined),0.445 µM,> 100 µM,0.522 µM,2.63 µM,0.488 µM,11.4 µM,1.35 µM,10.5 µM,5.33 µM,31.1 µM,1.32 µM,26.8 µM,0.395 µM,14.6 µM,0.613 µM,17.5 µM,4.61 µM,23.4 µM,0.378 µM,3.57 µM
CNC(=O)Oc1cc(C)c(/C=C/c2cncc(C(=O)NC)c2)c(C)c1,> 20.4 µM,> 25 µM,> 25 µM,> 25 µM,> 21.6 µM,> 25 µM,> 25 µM,> 25 µM,> 25 µM,> 25 µM,> 25 µM,> 25 µM,9.45 µM,24.6 µM,18.8 µM,> 25 µM,> 25 µM,> 25 µM,14.1 µM,> 25 µM
C=C(CN1CCN(c2cccc(C(F)(F)F)n2)CC1)c1ccc(C(=S)Nc2ccccc2N)cc1,2.44 µM,6.49 µM,3.19 µM,11.8 µM,5.72 µM,> 100 µM,4.91 µM,> 100 µM,4.47 µM,> 100 µM,5.33 µM,> 100 µM,5.71 µM,> 100 µM,6.95 µM,42.1 µM,3.67 µM,> 100 µM,3.74 µM,> 100 µM
C[n+]1ccc(-c2c3nc(c(-c4cc[n+](C)cc4)c4ccc([n-]4)c(-c4cc[n+](C)cc4)c4nc(c(-c5cc[n+](C)cc5)c5ccc2[n-]5)C=C4)C=C3)cc1.[I-].[Zn+2],32.2 µM,94.7 µM,18.3 µM,35.8 µM,16.2 µM,39.9 µM,14.9 µM,48.3 µM,11.1 µM,47.6 µM,23.6 µM,61.1 µM,12.5 µM,32.8 µM,5.54 µM,20 µM,> 100 µM,> 100 µM,3.03 µM,7.91 µM
O=C(/C(=C/c1ccc([N+](=O)[O-])cc1)SCc1ccc(F)cc1)c1ccc(Cl)cc1,2.63 µM,> 100 µM,6.46 µM,28.5 µM,15.5 µM,33.2 µM,13.7 µM,44.5 µM,11.5 µM,38.6 µM,6.6 µM,96.6 µM,73 µM,> 100 µM,16.4 µM,45.8 µM,12.7 µM,38.9 µM,15.5 µM,36.6 µM
COc1cc(-c2ncn(/C=C\C(=O)OC(C)C)n2)cc(C(F)(F)F)c1,0.0354 µM,14.3 µM and > 100 µM,0.0432 µM and 0.0437 µM,1.28 µM and 1.46 µM,0.0146 µM and 0.018 µM,0.225 µM and 0.187 µM,0.0164 µM and 0.031 µM,0.64 µM and 1.66 µM,2.6 µM,19.5 µM,0.045 µM and 0.031 µM,11.4 µM and 1.41 µM,0.0748 µM and 0.121 µM,0.999 µM and 0.904 µM,0.0461 µM and 0.0693 µM,2.24 µM and 8.58 µM,0.196 µM and 0.154 µM,17.3 µM and 14.8 µM,< 0.0139 µM and 0.0146 µM,0.0824 µM and 0.0725 µM
COc1ccc(OC)c(-c2cc(=O)c3c(OC)c(OC)c(OC)c(OC)c3o2)c1,,> 100 µM,,31.6 µM,,> 100 µM,,77.8 µM,,> 100 µM,,> 100 µM,,> 100 µM,,> 100 µM,,> 100 µM,,77.7 µM
CCc1cc2c(cc1N1CCC(N3CCOCC3)CC1)C(C)(C)c1[nH]c3cc(C#N)ccc3c1C2=O,< 0.0149 µM and 0.0165 µM and 0.0525 µM,,1.95 µM and 2.21 µM and 1.64 µM,6.37 µM and 7.16 µM and 8.45 µM,1.8 µM and 1.58 µM and 1.62 µM,3.92 µM and 3.43 µM and 3.86 µM,1.75 µM and 1.63 µM and 1.61 µM,4.32 µM and 3.97 µM and 5.19 µM,1.56 µM and 2.04 µM,6.85 µM and > 10 µM,0.648 µM and 0.935 µM and 1.3 µM,2.48 µM and 3.11 µM and 3.57 µM,1.03 µM and 1.25 µM and 1.38 µM,2.63 µM and 2.73 µM and 2.9 µM,1.95 µM and 1.87 µM and 2.32 µM,4.48 µM and 4.04 µM and 6.75 µM,1.52 µM and 1.29 µM and 1.93 µM,19.3 µM and 9.3 µM and > 10 µM,1.5 µM and 1.53 µM,3.47 µM and 3.78 µM and 3.84 µM
N#C/C(=C/Sc1ccccc1)C(=O)O,,> 100 µM,,47.5 µM,,35.2 µM,,58.7 µM,,> 100 µM,,36.9 µM,,55.9 µM,,> 100 µM,,74.6 µM,,58.2 µM
O=C(Nc1nc2ccc(F)cc2s1)c1cccnc1Nc1ccc(Cl)cc1,2.28 µM,9.31 µM,1.72 µM,3.48 µM,2.89 µM,> 27.9 µM,2.97 µM,> 100 µM,2.45 µM,> 82.6 µM,6.26 µM,> 100 µM,2.36 µM,16.1 µM,3.47 µM,> 79.3 µM,2.64 µM,> 61.1 µM,33.6 µM,> 100 µM
COC(=O)[C@H](Cc1ccc(O)cc1)NC(=O)[C@@H](OC)[C@@H]1Cc2cc3cc(OC4CC(OC5CC(O)C(O)C(C)O5)C(O)C(C)O4)c(C)c(O)c3c(O)c2C(=O)[C@H]1OC1CC(OC2CC(OC3CC(C)(O)C(O)C(C)O3)C(O)C(C)O2)C(O)C(C)O1 (some centres undefined),0.0163 µM,> 25 µM,0.0932 µM,1.19 µM,0.0639 µM,1.97 µM,0.0759 µM,0.582 µM,0.152 µM,> 25 µM,0.166 µM,> 25 µM,0.0773 µM,1.08 µM,0.0348 µM,0.598 µM,0.207 µM,> 25 µM,0.0544 µM,0.292 µM
O=c1oc(=O)c2oc3ccccc3oc1=2,,> 100 µM,,> 100 µM,,> 100 µM,,> 100 µM,,> 100 µM,,> 100 µM,,> 100 µM,,> 100 µM,,> 100 µM,,> 100 µM
CCOC(=O)c1ccc(NC(=O)SCCC(=O)O)cc1,,> 100 µM,,> 100 µM,,> 100 µM,,> 100 µM,,> 100 µM,,> 100 µM,,23.1 µM,,> 100 µM,,> 100 µM,,> 100 µM
